Test results: ChEMBL document CHEMBL3885881, “DrugMatrix”

Organism: Rattus norvegicus
Test: DrugMatrix - Regimen: Daily Repeat
Type: toxicity, organism-based, Sprague-Dawley
Parameters: regimen Daily Repeat, gender Male, age 6-8 weeks
Settings: in vivo, po, route oral GAVAGE, vehicle .5 % CMC; for ABSOLUTE BASOPHIL / ABSOLUTE EOSINOPHIL / ABSOLUTE LYMPHOCYTE / ABSOLUTE MONOCYTE / ABSOLUTE SEGMENTED NEUTROPHIL / BASOPHIL / EOSINOPHIL / ERYTHROCYTE COUNT / HEMATOCRIT / HEMOGLOBIN / LEUKOCYTE COUNT / LYMPHOCYTE / MEAN CORPUSCULAR HEMOGLOBIN / MEAN CORPUSCULAR HEMOGLOBIN CONCENTRATION / MEAN CORPUSCULAR VOLUME / MONOCYTE / NEUTROPHIL / NUCLEATED RED BLOOD CELLS / PLATELET COUNT: tissue Blood; for ALANINE AMINOTRANSFERASE / ALBUMIN / ALKALINE PHOSPHATASE / ASPARTATE AMINOTRANSFERASE / BLOOD UREA NITROGEN / CARBON DIOXIDE / CHLORIDE / CHOLESTEROL / CREATINE PHOSPHOKINASE / CREATININE / GLUCOSE / LACTATE DEHYDROGENASE / LIPASE / PHOSPHORUS / POTASSIUM / SODIUM / TOTAL BILIRUBIN / TOTAL PROTEIN / URIC ACID: tissue Plasma
[1] = 10 mg/kg, 120 h, dose level Low, time 5 day
[2] = 2500 mg/kg, 72 h, dose level High, time 3 day
[3] = 2500 mg/kg, 120 h, dose level High, time 5 day

O=C1CN=C(c2ccccc2Cl)c2cc([N+](=O)[O-])ccc2N1 [CLONAZEPAM]
ABSOLUTE BASOPHIL [1]: 0 CELLS/uL
ABSOLUTE EOSINOPHIL [1]: 31 CELLS/uL
ABSOLUTE LYMPHOCYTE [1]: 8153 CELLS/uL
ABSOLUTE MONOCYTE [1]: 62 CELLS/uL
ABSOLUTE SEGMENTED NEUTROPHIL [1]: 620.67 CELLS/uL
BASOPHIL [1]: 0%
EOSINOPHIL [1]: 0.33%
ERYTHROCYTE COUNT [1]: 5.74 x10E6/uL
HEMATOCRIT [1]: 35.3%
HEMOGLOBIN [1]: 13.87 G/DL
LEUKOCYTE COUNT [1]: 8.87 x10E3/uL
LYMPHOCYTE [1]: 91.67%
MEAN CORPUSCULAR HEMOGLOBIN [1]: 24.13 pg
MEAN CORPUSCULAR HEMOGLOBIN CONCENTRATION [1]: 39.3 G/DL
MEAN CORPUSCULAR VOLUME [1]: 61.43 fL
MONOCYTE [1]: 0.67%
NEUTROPHIL [1]: 7.33%
NUCLEATED RED BLOOD CELLS [1]: 0 /100WBC
PLATELET COUNT [1]: 1168 x10E3/uL
ALANINE AMINOTRANSFERASE [1]: 54 u/L
ALBUMIN [1]: 4.33 G/DL
ALKALINE PHOSPHATASE [1]: 274.67 u/L
ASPARTATE AMINOTRANSFERASE [1]: 97 u/L
BLOOD UREA NITROGEN [1]: 18.67 mg/dL
CARBON DIOXIDE [1]: 25.67 mmol/L
CHLORIDE [1]: 98.67 MEQ/L
CHOLESTEROL [1]: 75.33 mg/dL
CREATINE PHOSPHOKINASE [1]: 826.67 u/L
CREATININE [1]: 0.19 mg/dL
GLUCOSE [1]: 177.67 mg/dL
LACTATE DEHYDROGENASE [1]: 201 u/L
LIPASE [1]: 10 u/L
PHOSPHORUS [1]: 11.6 mg/dL
POTASSIUM [1]: 5.92 MEQ/L
SODIUM [1]: 138.97 MEQ/L
TOTAL BILIRUBIN [1]: 0.13 mg/dL
TOTAL PROTEIN [1]: 6.07 G/DL
URIC ACID [1]: 1.63 mg/dL
ABSOLUTE BASOPHIL [2]: 0 CELLS/uL
ABSOLUTE EOSINOPHIL [2]: 0 CELLS/uL
ABSOLUTE LYMPHOCYTE [2]: 8925.67 CELLS/uL
ABSOLUTE MONOCYTE [2]: 256 CELLS/uL
ABSOLUTE SEGMENTED NEUTROPHIL [2]: 1951.67 CELLS/uL
BASOPHIL [2]: 0%
EOSINOPHIL [2]: 0%
ERYTHROCYTE COUNT [2]: 5.85 x10E6/uL
HEMATOCRIT [2]: 36.6%
HEMOGLOBIN [2]: 14.27 G/DL
LEUKOCYTE COUNT [2]: 11.13 x10E3/uL
LYMPHOCYTE [2]: 79%
MEAN CORPUSCULAR HEMOGLOBIN [2]: 24.47 pg
MEAN CORPUSCULAR HEMOGLOBIN CONCENTRATION [2]: 39.03 G/DL
MEAN CORPUSCULAR VOLUME [2]: 62.67 fL
MONOCYTE [2]: 2.33%
NEUTROPHIL [2]: 18.67%
NUCLEATED RED BLOOD CELLS [2]: 0.33 /100WBC
PLATELET COUNT [2]: 1190 x10E3/uL
ALANINE AMINOTRANSFERASE [2]: 88.33 u/L
ALBUMIN [2]: 3.97 G/DL
ALKALINE PHOSPHATASE [2]: 322 u/L
ASPARTATE AMINOTRANSFERASE [2]: 132 u/L
BLOOD UREA NITROGEN [2]: 19.33 mg/dL
CARBON DIOXIDE [2]: 31.33 mmol/L
CHLORIDE [2]: 100.33 MEQ/L
CHOLESTEROL [2]: 88.67 mg/dL
CREATINE PHOSPHOKINASE [2]: 910.33 u/L
CREATININE [2]: 0.49 mg/dL
GLUCOSE [2]: 134.33 mg/dL
LACTATE DEHYDROGENASE [2]: 213.67 u/L
LIPASE [2]: 11.33 u/L
PHOSPHORUS [2]: 13.77 mg/dL
POTASSIUM [2]: 6.47 MEQ/L
SODIUM [2]: 143.17 MEQ/L
TOTAL BILIRUBIN [2]: 0.2 mg/dL
TOTAL PROTEIN [2]: 5.7 G/DL
URIC ACID [2]: 0.57 mg/dL
ABSOLUTE BASOPHIL [3]: 0 CELLS/uL
ABSOLUTE EOSINOPHIL [3]: 0 CELLS/uL
ABSOLUTE LYMPHOCYTE [3]: 10757.67 CELLS/uL
ABSOLUTE MONOCYTE [3]: 124 CELLS/uL
ABSOLUTE SEGMENTED NEUTROPHIL [3]: 1618.33 CELLS/uL
BASOPHIL [3]: 0%
EOSINOPHIL [3]: 0%
ERYTHROCYTE COUNT [3]: 5.66 x10E6/uL
HEMATOCRIT [3]: 34.97%
HEMOGLOBIN [3]: 14.27 G/DL
LEUKOCYTE COUNT [3]: 12.5 x10E3/uL
LYMPHOCYTE [3]: 85.67%
MEAN CORPUSCULAR HEMOGLOBIN [3]: 25.23 pg
MEAN CORPUSCULAR HEMOGLOBIN CONCENTRATION [3]: 40.83 G/DL
MEAN CORPUSCULAR VOLUME [3]: 61.8 fL
MONOCYTE [3]: 1%
NEUTROPHIL [3]: 13.33%
NUCLEATED RED BLOOD CELLS [3]: 0 /100WBC
PLATELET COUNT [3]: 964.33 x10E3/uL
ALANINE AMINOTRANSFERASE [3]: 84 u/L
ALBUMIN [3]: 3.93 G/DL
ALKALINE PHOSPHATASE [3]: 331.67 u/L
ASPARTATE AMINOTRANSFERASE [3]: 114 u/L
BLOOD UREA NITROGEN [3]: 19 mg/dL
CARBON DIOXIDE [3]: 27 mmol/L
CHLORIDE [3]: 102.33 MEQ/L
CHOLESTEROL [3]: 93 mg/dL
CREATINE PHOSPHOKINASE [3]: 261 u/L
CREATININE [3]: 0.2 mg/dL
GLUCOSE [3]: 136.67 mg/dL
LACTATE DEHYDROGENASE [3]: 217.67 u/L
LIPASE [3]: 10.33 u/L
PHOSPHORUS [3]: 9.8 mg/dL
POTASSIUM [3]: 5.43 MEQ/L
SODIUM [3]: 142.37 MEQ/L
TOTAL BILIRUBIN [3]: 0.2 mg/dL
TOTAL PROTEIN [3]: 5.73 G/DL
URIC ACID [3]: 1.13 mg/dL
